Laboratory results from patent US20250333405A1, “ANTAGONISTS OF GPR39 PROTEIN” (VASOCARDEA, INC., priority 2024, published 2025).

Target: T1, human GPR39 receptor (Homo sapiens, UniProt O43194)
T1 construct: PC3 Cells, Expressing the Endogenous Human GPR39 Receptor; endogenous in cells; host or cells: PC3 (human prostate adenocarcinoma) cells
T1 sequence (O43194 1-453): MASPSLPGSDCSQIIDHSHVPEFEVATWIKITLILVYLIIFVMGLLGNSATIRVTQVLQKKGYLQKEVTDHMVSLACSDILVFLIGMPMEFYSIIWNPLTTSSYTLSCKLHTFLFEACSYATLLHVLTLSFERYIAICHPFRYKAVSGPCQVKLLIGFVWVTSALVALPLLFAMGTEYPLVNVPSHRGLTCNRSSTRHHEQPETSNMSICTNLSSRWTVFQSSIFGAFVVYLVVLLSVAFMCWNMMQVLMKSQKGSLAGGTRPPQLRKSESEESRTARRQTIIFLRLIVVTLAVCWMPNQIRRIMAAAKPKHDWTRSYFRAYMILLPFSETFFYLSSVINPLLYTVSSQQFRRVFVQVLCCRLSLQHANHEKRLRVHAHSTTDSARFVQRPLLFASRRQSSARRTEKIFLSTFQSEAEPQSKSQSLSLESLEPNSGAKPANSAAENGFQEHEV
Experiment: Intracellular calcium response (FLIPR, Calcium-6) in PC3 cells, antagonism of agonist C3 (TC-G 1008) at EC90
Assay type: cell-based
Settings: functional pKi (-Log10Ki) by modified Cheng-Prusoff from IC50; PC3 cells endogenously expressing human GPR39; 30 μM ZnCl2; agonist C3 (TC-G 1008) at EC90 1.5 μM; read-out: fpKi activity
Procedure: Measurement of Intracellular Calcium Response in PC3 Cells, Expressing the Endogenous Human GPR39 Receptor
Human prostate adenocarcinoma (PC3) cells endogenously expressing human GPR39 receptor were seeded into black walls clear-base 384-well plates at a density of 7,500 cells per well in DMEM (Low Glucose) supplemented with 10% heat-inactivated foetal bovine serum and 1% of Pen/Strep and grown overnight at 37° C., 5% CO2. After washing with assay buffer (20 mM HEPES, 137 mM NaCl, 5.4 mM KCl, 10 mM glucose, 0.8 mM MgSO4, 1.3 mM CaCl2), 0.3 mM Na2HPO4, 0.4 mM KH2PO4 4.2 mM NaHCO3, pH 7.4), cells were incubated with Calcium-6 probe (Molecular Devices) at 37° C. for 2 h and then equilibrated at RT for 30 minutes on metal block. The fluorescence was measured in real time by Fluorometric Imaging Plate Reader (FLIPR TETRA, Molecular Devices) (excitation wavelength at 470-495 nm, emission wavelength at 515-575 nm). Compounds of invention were serially diluted in neat DMSO at 1000 fold concentrations and plated into 384-well plates and then 200-fold diluted in assay buffer containing 150 μM ZnCl2 (30 μM final concentration) and 1.1% DMSO (0.32% final concentration). A dual addition FLIPR protocol was used which included a first addition of compounds 200-fold diluted in Assay Buffer containing 150 μM ZnCl2 and 1.1% DMSO and then after 10 minutes a second addition of a submaximal concentration of the hGPR39 receptor agonist, C3 (Tocris, TC-G 1008) at EC90 (concentration producing 90% of the maximal response) value of 1.5 μM. Fluorescence was monitored throughout the run assay. The peak of Ca2+ stimulation (baseline subtracted) was expressed as percentage of the maximal inhibition of the EC90 C3 response and was plotted versus the concentration of test compound. Curve fitting and IC50 estimations are carried out using a four-parameter logistic model using XLfit Software. […] An fpKi less than 5.2 is reported as “+/−”. An fpKi ranging from 5.2 to 5.9 is reported as “+”. An fpKi from 6.0 to 6.5 is reported as “++”. An fpKi from 6.6 to 7.2 is reported as “+++”. An fpKi equal to or greater than 7.3 is reported as “++++”.

SMILES | Ki [nM]
Cc1nc2cc(N3CCCC3)c(C(=O)N3CCN(C)CC3c3ccccc3)cc2[nH]1 (centres unmarked) [Example 114, (4-methyl-2-phenylpiperazin-1-yl)-(2-methyl-6-pyrrolidin-1-yl-3H-benzimidazol-5-yl)methanone] | > 6310
CC(C)n1ccc(-c2cc(NC(=O)C3CC3)ccc2C(=O)N2CCS(=O)(=O)CC2)n1 [Example 28, N-[4-(1,1-dioxo-1,4-thiazinane-4-carbonyl)-3-(1-propan-2-ylpyrazol-3-yl)phenyl]cyclopropanecarboxamide] | ≤ 50.1
O=C(Nc1ccc(C(=O)N2CCS(=O)(=O)CC2)c(-c2ccc(C(F)(F)F)s2)c1)C1CC1 [Example 29, N-[4-(1,1-dioxo-1,4-thiazinane-4-carbonyl)-3-[5-(trifluoromethyl)thiophen-2-yl]phenyl]cyclopropanecarboxamide] | 316 to 1000
CN1CCN(C(=O)c2ccc(NC(=O)C3CC3)cc2N2CCCC2)C(c2cccc(C#N)c2)C1 (racemic) [Example 107, N-[4-[2-(3-cyanophenyl)-4-methylpiperazine-1-carbonyl]-3-pyrrolidin-1-ylphenyl]cyclopropanecarboxamide] | 63.1 to 251
Cc1nnc(-c2ccc(C(=O)N3CCC(OC(F)(F)F)CC3)c(-c3ccn(C(C)(C)C)n3)c2)[nH]1 [Example 80, [2-(1-tert-butylpyrazol-3-yl)-4-(5-methyl-4H-1,2,4-triazol-3-yl)phenyl]-[4-(trifluoromethoxy)-1-piperidyl]methanone] | ≤ 50.1
O=C(Nc1ccc(C(=O)N2CCC(F)(F)CC2)c(-n2ccc(C(F)(F)F)n2)c1)C1CC1 [Example 119, N-[4-(4,4-difluoropiperidine-1-carbonyl)-3-[3-(trifluoromethyl)pyrazol-1-yl]phenyl]cyclopropanecarboxamide] | ≤ 50.1
Cc1nnc(-c2ccc(C(=O)N3CCC(C)CC3)c(-c3ccn(C(C)(C)C)n3)c2)[nH]1 [Example 64, [2-(1-tert-butylpyrazol-3-yl)-4-(5-methyl-4H-1,2,4-triazol-3-yl)phenyl]-(4-methyl-1-piperidyl)methanone] | ≤ 50.1
Cc1nnc(-c2ccc(C(=O)N3CCC(C)CC3)c(-c3ccn(C(C)C)n3)c2)[nH]1 [Example 61, (4-methylpiperidin-1-yl)-[4-(5-methyl-4H-1,2,4-triazol-3-yl)-2-(1-propan-2-ylpyrazol-3-yl)phenyl]methanone] | ≤ 50.1
CN1CCN(C(=O)c2ccc(NC(=O)C3CC3)cc2-c2cnc(C(F)(F)F)s2)C(c2ccccc2)C1 (racemic) [Example 31, N-[4-(4-methyl-2-phenylpiperazine-1-carbonyl)-3-[2-(trifluoromethyl)-1,3-thiazol-5-yl]phenyl]cyclopropanecarboxamide] | > 6310
CN1CCN(S(=O)(=O)c2ccc(NC(=O)C3CC3)cc2N2CCCC2)C(c2ccccc2)C1 (centres unmarked) [Example 102, N-[4-(4-methyl-2-phenylpiperazin-1-yl)sulfonyl-3-pyrrolidin-1-ylphenyl]cyclopropanecarboxamide] | 1260 to 6310
COC1(C)CCN(C(=O)c2ccc(-c3nnc(C)[nH]3)cc2-c2ccn(C(C)C)n2)CC1 [Example 39, [2-(1-isopropylpyrazol-3-yl)-4-(5-methyl-4H-1,2,4-triazol-3-yl)phenyl]-(4-methoxy-4-methyl-1-piperidyl)methanone] | ≤ 50.1
O=C(Nc1ccc(C(=O)N2CCS(=O)(=O)CC2)c(-c2cccc(C(F)(F)F)n2)c1)C1CC1 [Example 37, N-[4-(1,1-dioxo-1,4-thiazinane-4-carbonyl)-3-[6-(trifluoromethyl)pyridin-2-yl]phenyl]cyclopropanecarboxamide] | ≤ 50.1
Cc1cc(C(=O)N2CCS(=O)(=O)CC2)c(N2CCCC2)cc1NC(=O)C1CC1 [Example 93, N-[4-(1,1-dioxo-1,4-thiazinane-4-carbonyl)-2-methyl-5-pyrrolidin-1-ylphenyl]cyclopropanecarboxamide] | > 6310
O=C(Nc1ccc(C(=O)N2CC3CC(C2)O3)c(N2CCCC2)c1)C1CC1 [Example 8, N-[4-(6-oxa-3-azabicyclo[3.1.1]heptane-3-carbonyl)-3-pyrrolidin-1-ylphenyl]cyclopropanecarboxamide] | 1260 to 6310
Cc1ccc(-c2cc(NC(=O)C3CC3)ccc2C(=O)N2CCN(C)CC2c2ccccc2)s1 (racemic) [Example 34, N-[4-(4-methyl-2-phenylpiperazine-1-carbonyl)-3-(5-methylthiophen-2-yl)phenyl]cyclopropanecarboxamide] | 63.1 to 251
CCCN1CCN(C(=O)c2ccc(NC(=O)C3CC3)cc2-c2ccn(C(C)C)n2)CC1 [Example 24, N-[3-(1-propan-2-ylpyrazol-3-yl)-4-(4-propylpiperazine-1-carbonyl)phenyl]cyclopropanecarboxamide] | ≤ 50.1
CN1CCN(C(=O)c2ccc(NC(=O)C3CC3)cc2-c2ccc(C(F)(F)F)s2)C(c2ccccc2)C1 (racemic) [Example 33, N-[4-(4-methyl-2-phenylpiperazine-1-carbonyl)-3-[5-(trifluoromethyl)thiophen-2-yl]phenyl]cyclopropanecarboxamide] | > 6310
Cc1cccc(C2CN(C)CCN2C(=O)c2ccc(NC(=O)C3CC3)cc2N2CCCC2)c1 (racemic) [Example 111, N-[4-[4-methyl-2-(3-methylphenyl)piperazine-1-carbonyl]-3-pyrrolidin-1-ylphenyl]cyclopropanecarboxamide] | 63.1 to 251
CN1CCN(C(=O)c2ccc(NC(=O)C3CC3)cc2C2CCCC2)C(c2ccccc2)C1 (centres unmarked) [Example 91, N-[3-cyclopentyl-4-(4-methyl-2-phenylpiperazine-1-carbonyl)phenyl]cyclopropanecarboxamide] | 316 to 1000
Cc1ncc(-c2cc(NC(=O)C3CC3)ccc2C(=O)N2CCN(C)CC2c2ccccc2)s1 (racemic) [Example 32, N-[4-(4-methyl-2-phenylpiperazine-1-carbonyl)-3-(2-methyl-1,3-thiazol-5-yl)phenyl]cyclopropanecarboxamide] | 1260 to 6310
O=C(Nc1ccc(C(=O)N2CCC(c3ccccc3)C2)c(N2CCCC2)c1)C1CC1 (centres unmarked) [Example 2, N-[4-(3-phenylpyrrolidine-1-carbonyl)-3-pyrrolidin-1-ylphenyl]cyclopropanecarboxamide] | 1260 to 6310
Cc1nnc(-c2ccc(C(=O)N3CCC(C(F)(F)F)CC3)c(-c3cccc(C(C)C)n3)c2)[nH]1 [Example 70, [2-(6-isopropyl-2-pyridyl)-4-(5-methyl-4H-1,2,4-triazol-3-yl)phenyl]-[4-(trifluoromethyl)-1-piperidyl]methanone] | ≤ 50.1
O=C(Nc1ccc(C(=O)N2CCS(=O)(=O)CC2)c(N2CCCC2=O)c1)C1CC1 [Example 123, N-[4-(1,1-dioxo-1,4-thiazinane-4-carbonyl)-3-(2-oxopyrrolidin-1-yl)phenyl]cyclopropanecarboxamide] | > 6310
CN1CCN(C(=O)c2ccc(NC(=O)C3CC3)c(Cl)c2N2CCCC2)C(c2ccccc2)C1 (centres unmarked) [Example 97, N-[2-chloro-4-(4-methyl-2-phenylpiperazine-1-carbonyl)-3-pyrrolidin-1-ylphenyl]cyclopropanecarboxide] | 316 to 1000
CN1CCN(S(=O)(=O)c2ccc(NC(=O)C3CC3)cc2N2CCCC2)CC1 [Example 103, N-[4-(4-methylpiperazin-1-yl)sulfonyl-3-pyrrolidin-1-ylphenyl]cyclopropanecarboxamide] | 1260 to 6310
CCOC(=O)c1csc(-c2cc(C#N)ccc2C(=O)N2CCC(F)(F)CC2)n1 [Example 81, ethyl 2-[5-cyano-2-(4,4-difluoropiperidine-1-carbonyl)phenyl]thiazole-4-carboxylate] | 63.1 to 251
